# What was measured:
# Assay type in all cases: in vivo
# Conditions in all cases: treatment dosage 320 g/ha
# [1] = system: transplanted rice; test: Test Example 1: preemergent weed treatment in the submerged state, effect on crop; a: transplanted rice
# Procedure, shortened: (§1)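 Emulsion diluted with water to the specified per-hectare dosage is applied onto flood water (4 cm) over alluvial soil on the sowing day, with barnyard grass, bulrush and pondweed seeded and rice (2.5-leaf) transplanted; plants grow at 25–30 °C and are rated at 3 weeks.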
# [2] = system: Indian mallow; test: Test Example 3: weedkilling efficacy through soil treatment; K: Indian mallow
# Procedure, shortened: (§2)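 Crop and weed responses were judged three weeks after a uniform surface spray of the water-diluted emulsion at the given g/ha rate. Seeds sat beneath about 1.5 cm of sterilized diluvial soil, and boxes stood in a greenhouse at 25 to 30° C.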
# [3] = system: barnyard grass; test: Test Example 3: weedkilling efficacy through soil treatment; F: barnyard grass
# Procedure, shortened: as §2
# [4] = system: oval-leafed pondweed; test: Test Example 1: weedkilling efficacy, preemergent weed treatment in the submerged state; C: oval-leafed pondweed
# Procedure, shortened: as §1
# [5] = system: crabgrass; test: Test Example 3: weedkilling efficacy through soil treatment; D: crabgrass
# Procedure, shortened: as §2
# [6] = system: barnyard grass; test: Test Example 2: weedkilling efficacy, growth period weed treatment in the submerged state; A: barnyard grass
# Procedure, shortened: (§3)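 First, alluvial soil in pots is flooded to 4 cm and mixed seed is sown. Next, plants grow in a greenhouse at 25 to 30° C until the 1-2 leaf stage. Then diluted emulsion is applied onto the water surface at the given g/ha rate, and injury is assessed after 3 weeks.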
# [7] = system: common wind-grass; test: Test Example 4: weedkilling efficacy by foliar treatment; J: common wind-grass
# Procedure, shortened: (§4)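 Seeds are spot-sown into sterilized diluvial soil and covered with about 1.5 cm of soil. After 14 days' greenhouse growth at 25 to 30° C, plants are sprayed on stems and leaves with diluted emulsion at the stated g/ha rate, then scored at 3 weeks.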
# [8] = system: wild oat; test: Test Example 3: weedkilling efficacy through soil treatment; G: wild oat
# Procedure, shortened: as §2
# [9] = system: green foxtail; test: Test Example 3: weedkilling efficacy through soil treatment; E: green foxtail
# Procedure, shortened: as §2
# [10] = system: oval-leafed pondweed; test: Test Example 2: weedkilling efficacy, growth period weed treatment in the submerged state; C: oval-leafed pondweed
# Procedure, shortened: as §3
# [11] = system: beet; test: Test Example 3: soil treatment, effect on crop; f: beet
# Procedure, shortened: as §2
# [12] = system: black-grass; test: Test Example 3: weedkilling efficacy through soil treatment; H: black-grass
# Procedure, shortened: as §2
# [13] = system: fig-leafed goosefoot; test: Test Example 4: weedkilling efficacy by foliar treatment; M: fig-leafed goosefoot
# Procedure, shortened: as §4
# [14] = system: directly sown rice; test: Test Example 4: foliar treatment, effect on crop; b: directly sown rice
# Procedure, shortened: as §4
# [15] = system: wheat; test: Test Example 4: foliar treatment, effect on crop; e: wheat
# Procedure, shortened: as §4
# [16] = system: corn; test: Test Example 4: foliar treatment, effect on crop; c: corn
# Procedure, shortened: as §4
# [17] = system: chickweed; test: Test Example 4: weedkilling efficacy by foliar treatment; N: chickweed
# Procedure, shortened: as §4
# [18] = system: catchweed; test: Test Example 3: weedkilling efficacy through soil treatment; O: catchweed
# Procedure, shortened: as §2
# [19] = system: beet; test: Test Example 4: foliar treatment, effect on crop; f: beet
# Procedure, shortened: as §4
# [20] = system: crabgrass; test: Test Example 4: weedkilling efficacy by foliar treatment; D: crabgrass
# Procedure, shortened: as §4
# [21] = system: directly sown rice; test: Test Example 3: soil treatment, effect on crop; b: directly sown rice
# Procedure, shortened: as §2
# [22] = system: common wind-grass; test: Test Example 3: weedkilling efficacy through soil treatment; J: common wind-grass
# Procedure, shortened: as §2
# [23] = system: barnyard grass; test: Test Example 1: weedkilling efficacy, preemergent weed treatment in the submerged state; A: barnyard grass
# Procedure, shortened: as §1
# [24] = system: rapeseed; test: Test Example 3: soil treatment, effect on crop; g: rapeseed
# Procedure, shortened: as §2
# [25] = system: redroot pigweed; test: Test Example 3: weedkilling efficacy through soil treatment; L: redroot pigweed
# Procedure, shortened: as §2
# [26] = system: wild oat; test: Test Example 4: weedkilling efficacy by foliar treatment; G: wild oat
# Procedure, shortened: as §4
# [27] = system: chickweed; test: Test Example 3: weedkilling efficacy through soil treatment; N: chickweed
# Procedure, shortened: as §2
# [28] = system: redroot pigweed; test: Test Example 4: weedkilling efficacy by foliar treatment; L: redroot pigweed
# Procedure, shortened: as §4
# [29] = system: Italian ryegrass; test: Test Example 4: weedkilling efficacy by foliar treatment; I: Italian ryegrass
# Procedure, shortened: as §4
# [30] = system: bulrush; test: Test Example 1: weedkilling efficacy, preemergent weed treatment in the submerged state; B: bulrush
# Procedure, shortened: as §1
# [31] = system: barnyard grass; test: Test Example 4: weedkilling efficacy by foliar treatment; F: barnyard grass
# Procedure, shortened: as §4
# [32] = system: Indian mallow; test: Test Example 4: weedkilling efficacy by foliar treatment; K: Indian mallow
# Procedure, shortened: as §4
# [33] = system: birds-eye speedwell; test: Test Example 4: weedkilling efficacy by foliar treatment; p: birds-eye speedwell
# Procedure, shortened: as §4
# [34] = system: wheat; test: Test Example 3: soil treatment, effect on crop; e: wheat
# Procedure, shortened: as §2
# [35] = system: green foxtail; test: Test Example 4: weedkilling efficacy by foliar treatment; E: green foxtail
# Procedure, shortened: as §4
# [36] = system: rapeseed; test: Test Example 4: foliar treatment, effect on crop; g: rapeseed
# Procedure, shortened: as §4
# [37] = system: birds-eye speedwell; test: Test Example 3: weedkilling efficacy through soil treatment; p: birds-eye speedwell
# Procedure, shortened: as §2
# [38] = system: soybean; test: Test Example 3: soil treatment, effect on crop; d: soybean
# Procedure, shortened: as §2
# [39] = system: bulrush; test: Test Example 2: weedkilling efficacy, growth period weed treatment in the submerged state; B: bulrush
# Procedure, shortened: as §3
# [40] = system: black-grass; test: Test Example 4: weedkilling efficacy by foliar treatment; H: black-grass
# Procedure, shortened: as §4
# [41] = system: Italian ryegrass; test: Test Example 3: weedkilling efficacy through soil treatment; I: Italian ryegrass
# Procedure, shortened: as §2
# [42] = system: catchweed; test: Test Example 4: weedkilling efficacy by foliar treatment; O: catchweed
# Procedure, shortened: as §4
# [43] = system: corn; test: Test Example 3: soil treatment, effect on crop; c: corn
# Procedure, shortened: as §2
# [44] = system: soybean; test: Test Example 4: foliar treatment, effect on crop; d: soybean
# Procedure, shortened: as §4
structure (smiles),measurement,setting,value
CCOc1cc(C(F)(F)F)cc(NC(=O)C(C)(C)N2COC(C)=C(c3ccccc3)C2=O)n1 [B-2-50],a (transplanted rice) effect on crop grade,[1],0 (weed kill ratio 5% or less (practically no effect))
same,K (Indian mallow) weedkilling efficacy grade,[2],0 (weed kill ratio 5% or less (practically no effect))
same,F (barnyard grass) weedkilling efficacy grade,[3],"4 (weed kill ratio 70% or more, less than 90%)"
same,C (oval-leafed pondweed) weedkilling efficacy grade,[4],"5 (weed kill ratio 90% or more, (practically complete withering))"
same,D (crabgrass) weedkilling efficacy grade,[5],"5 (weed kill ratio 90% or more, (practically complete withering))"
same,A (barnyard grass) weedkilling efficacy grade,[6],"5 (weed kill ratio 90% or more, (practically complete withering))"
same,J (common wind-grass) weedkilling efficacy grade,[7],"1 (weed kill ratio 5% or more, less than 20%)"
same,G (wild oat) weedkilling efficacy grade,[8],0 (weed kill ratio 5% or less (practically no effect))
same,E (green foxtail) weedkilling efficacy grade,[9],"5 (weed kill ratio 90% or more, (practically complete withering))"
same,C (oval-leafed pondweed) weedkilling efficacy grade,[10],"4 (weed kill ratio 70% or more, less than 90%)"
same,f (beet) effect on crop grade,[11],0 (weed kill ratio 5% or less (practically no effect))
same,H (black-grass) weedkilling efficacy grade,[12],"2 (weed kill ratio 20% or more, less than 40%)"
same,M (fig-leafed goosefoot) weedkilling efficacy grade,[13],"3 (weed kill ratio 40% or more, less than 70%)"
same,b (directly sown rice) effect on crop grade,[14],0 (weed kill ratio 5% or less (practically no effect))
same,e (wheat) effect on crop grade,[15],0 (weed kill ratio 5% or less (practically no effect))
same,c (corn) effect on crop grade,[16],0 (weed kill ratio 5% or less (practically no effect))
same,N (chickweed) weedkilling efficacy grade,[17],0 (weed kill ratio 5% or less (practically no effect))
same,O (catchweed) weedkilling efficacy grade,[18],0 (weed kill ratio 5% or less (practically no effect))
same,f (beet) effect on crop grade,[19],0 (weed kill ratio 5% or less (practically no effect))
same,D (crabgrass) weedkilling efficacy grade,[20],"2 (weed kill ratio 20% or more, less than 40%)"
same,b (directly sown rice) effect on crop grade,[21],"1 (weed kill ratio 5% or more, less than 20%)"
same,J (common wind-grass) weedkilling efficacy grade,[22],"5 (weed kill ratio 90% or more, (practically complete withering))"
same,A (barnyard grass) weedkilling efficacy grade,[23],"5 (weed kill ratio 90% or more, (practically complete withering))"
same,g (rapeseed) effect on crop grade,[24],0 (weed kill ratio 5% or less (practically no effect))
same,L (redroot pigweed) weedkilling efficacy grade,[25],"2 (weed kill ratio 20% or more, less than 40%)"
same,G (wild oat) weedkilling efficacy grade,[26],0 (weed kill ratio 5% or less (practically no effect))
same,N (chickweed) weedkilling efficacy grade,[27],0 (weed kill ratio 5% or less (practically no effect))
same,L (redroot pigweed) weedkilling efficacy grade,[28],0 (weed kill ratio 5% or less (practically no effect))
same,I (Italian ryegrass) weedkilling efficacy grade,[29],"1 (weed kill ratio 5% or more, less than 20%)"
same,B (bulrush) weedkilling efficacy grade,[30],"5 (weed kill ratio 90% or more, (practically complete withering))"
same,F (barnyard grass) weedkilling efficacy grade,[31],0 (weed kill ratio 5% or less (practically no effect))
same,K (Indian mallow) weedkilling efficacy grade,[32],"1 (weed kill ratio 5% or more, less than 20%)"
same,P (birds-eye speedwell) weedkilling efficacy grade,[33],0 (weed kill ratio 5% or less (practically no effect))
same,e (wheat) effect on crop grade,[34],0 (weed kill ratio 5% or less (practically no effect))
same,E (green foxtail) weedkilling efficacy grade,[35],"2 (weed kill ratio 20% or more, less than 40%)"
same,g (rapeseed) effect on crop grade,[36],0 (weed kill ratio 5% or less (practically no effect))
same,P (birds-eye speedwell) weedkilling efficacy grade,[37],0 (weed kill ratio 5% or less (practically no effect))
same,d (soybean) effect on crop grade,[38],0 (weed kill ratio 5% or less (practically no effect))
same,B (bulrush) weedkilling efficacy grade,[39],"4 (weed kill ratio 70% or more, less than 90%)"
same,H (black-grass) weedkilling efficacy grade,[40],"1 (weed kill ratio 5% or more, less than 20%)"
same,I (Italian ryegrass) weedkilling efficacy grade,[41],"3 (weed kill ratio 40% or more, less than 70%)"
same,O (catchweed) weedkilling efficacy grade,[42],0 (weed kill ratio 5% or less (practically no effect))
same,c (corn) effect on crop grade,[43],"1 (weed kill ratio 5% or more, less than 20%)"
same,d (soybean) effect on crop grade,[44],0 (weed kill ratio 5% or less (practically no effect))

# — US9738634B2, “Heterocyclic amide compound and herbicide” (SYNGENTA PARTICIPATIONS AG, priority 2013, dated 2017)
